Experimental data published in patent publication US9573970B2, “4-{4-[(1E)-4-(2,9-diazaspiro[5.5]undec-2-yl)but-1-en-1-yl]-2-methylbenzyl}-5-(propan-2-yl)-1H-pyrazol-3-yl beta-D glucopyranoside acetate” (Eli Lilly and Company, priority 2013, dated 2017).

Tested on: male rats with STZ-induced diabetes
Assay: Mixed meal tolerance test (MTT) in male rats with streptozotocin induced diabetes
Format: in vivo, rat
Conditions: 60 mg/kg oral, mean ± SE
Description: The test compound is formulated by adding a vehicle of 1% hydroxyethylcellulose (HEC), 0.25% Tween® 80 w/antifoam 0.05% to preweighed test compound to make a 2.5 mg/ml solution. The mixture is probe sonicated for approximately 30 seconds. The resulting solution is used as a stock solution, from which the lower concentration dose solutions are prepared by dilution with the vehicle. STZ, 45 mg/kg, is formulated by dissolving in 0.1M Citrate buffer in 3 ml aliquots and stored in the dark on ice, when not being administered. A high fat content mixed meal (Bio-Serv® Rodent Diet F3282 High Fat) comprising Fat Calories (60%), Carbohydrate Calories (26%) and Protein Calories (15%) is utilized. Single housed Sprague Dawley rats are allowed to acclimate for a period of 3 to 7 days.
In an effort to ensure that the animals have not recently fed, STZ is administered in the afternoon, approximately six hours into the light cycle (lights on 6 am, lights off 6 pm). The animals are anesthetized with isoflurane and STZ is delivered via tail vein injection. Once animals regain consciousness, they are returned to housing and allowed to recover for 7 days.
On the two days immediately prior to the meal tolerance test (MTT) all rats are given a small amount (2-4 g) of the F3282 diet, so they became acclimated to it prior to receiving it during the experiment. On the evening before the experiment, the rats are moved into clean cages and their food is removed. The following morning animals are weighed and a blood sample is taken by tail snip for glucose measurement (Abbott AlphaTRAK™ glucometers: code 29) Animals are grouped n=6 based on fasted body weight and glucose. Thirty minutes after the test compound is orally administered, two glucose measurements are collected. Then a five gram pellet of Bio-Serv® diet 3282 is given. After 20 minutes remaining food is taken away and weighed. Blood samples are taken at 20, 40, 60 and 120 minutes for glucose measurement.

## C[C@H]1O[C@H](O[C@H]2[C@H](O)[C@@H](O)[C@@H](O[C@H]3[C@H](O)[C@@H](O)C(O)O[C@@H]3CO)O[C@@H]2CO)[C@H](O)[C@@H](O)[C@@H]1N[C@H]1C=C(CO)[C@@H](O)[C@H](O)[C@H]1O (stereo partly drawn) [Acarbose, reference compound]
30 min after compound, before meal
  Glucose value, 0 min.: 124 ± 16.9 mg/dL
MTT
  Baseline Adjusted AUC (glucose): 23877 ± 4649
  Glucose value, 20 min.: 181 ± 22.8 mg/dL
  Glucose value, 40 min.: 301.3 ± 51.2 mg/dL
  Glucose value, 60 min.: 371.5 ± 63.9 mg/dL
  Glucose value, 120 min.: 433.7 ± 83 mg/dL
